Laboratory results published in US11623919B2, “Heterocyclic P2X7 antagonists” (AXXAM S.P.A., priority 2017, dated 2023).

How the values were obtained:
Test in all cases: Screen Quest Fluo-8 No Wash Calcium Assay (Bz-ATP evoked Ca2+ influx, FLIPR)
Type in all cases: cell-based
[1] = molecular target: T1, P2X7 receptor (Mus musculus, UniProt Q9Z1M0); details: mP2X7; HEK-293 cells stably transfected with P2X7 receptor, Bz-ATP at EC80, Fluo-8 NW; potency ranges A-D
T1 construct: mP2X7 (IC50; nM); other: mP2X7; HEK-293 cells stably transfected with P2X7 receptor, Bz-ATP at EC80, Fluo-8 NW; potency
T1 sequence (Q9Z1M0 1-595): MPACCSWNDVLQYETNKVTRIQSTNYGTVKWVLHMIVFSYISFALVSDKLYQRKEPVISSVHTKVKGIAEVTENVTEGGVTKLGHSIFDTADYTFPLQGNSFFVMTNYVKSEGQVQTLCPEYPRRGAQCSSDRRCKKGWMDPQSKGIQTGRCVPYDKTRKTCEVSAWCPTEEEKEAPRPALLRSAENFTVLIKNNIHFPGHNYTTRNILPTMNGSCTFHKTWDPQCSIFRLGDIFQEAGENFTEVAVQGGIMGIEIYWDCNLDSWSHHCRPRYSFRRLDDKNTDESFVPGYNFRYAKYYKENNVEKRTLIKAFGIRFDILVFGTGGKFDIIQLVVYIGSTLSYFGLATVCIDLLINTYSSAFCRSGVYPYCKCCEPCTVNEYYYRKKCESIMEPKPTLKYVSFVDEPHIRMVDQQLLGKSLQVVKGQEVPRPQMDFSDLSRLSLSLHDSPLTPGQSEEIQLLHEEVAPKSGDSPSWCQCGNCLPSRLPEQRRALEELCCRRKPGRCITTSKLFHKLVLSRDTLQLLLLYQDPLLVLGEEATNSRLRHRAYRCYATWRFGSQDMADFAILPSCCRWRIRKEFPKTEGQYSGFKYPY
In short: (§1)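 Compounds were added to Fluo-8-loaded P2X7-transfected HEK-293 cells 5 min before an EC80 Bz-ATP challenge, and Ca2+ influx was then recorded for 3 min. Buffer held 0.3 mM Ca2+ and no Mg2+. Inhibition was normalised to A438079, giving IC50 values.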

[2] = molecular target: T2, P2X7 receptor (Rattus norvegicus, UniProt Q64663); details: rP2X7; HEK-293 cells stably transfected with P2X7 receptor, Bz-ATP at EC80, Fluo-8 NW; potency ranges A-D
T2 construct: rP2X7 (IC50; nM); other: rP2X7; HEK-293 cells stably transfected with P2X7 receptor, Bz-ATP at EC80, Fluo-8 NW; potency
T2 sequence (Q64663 1-595): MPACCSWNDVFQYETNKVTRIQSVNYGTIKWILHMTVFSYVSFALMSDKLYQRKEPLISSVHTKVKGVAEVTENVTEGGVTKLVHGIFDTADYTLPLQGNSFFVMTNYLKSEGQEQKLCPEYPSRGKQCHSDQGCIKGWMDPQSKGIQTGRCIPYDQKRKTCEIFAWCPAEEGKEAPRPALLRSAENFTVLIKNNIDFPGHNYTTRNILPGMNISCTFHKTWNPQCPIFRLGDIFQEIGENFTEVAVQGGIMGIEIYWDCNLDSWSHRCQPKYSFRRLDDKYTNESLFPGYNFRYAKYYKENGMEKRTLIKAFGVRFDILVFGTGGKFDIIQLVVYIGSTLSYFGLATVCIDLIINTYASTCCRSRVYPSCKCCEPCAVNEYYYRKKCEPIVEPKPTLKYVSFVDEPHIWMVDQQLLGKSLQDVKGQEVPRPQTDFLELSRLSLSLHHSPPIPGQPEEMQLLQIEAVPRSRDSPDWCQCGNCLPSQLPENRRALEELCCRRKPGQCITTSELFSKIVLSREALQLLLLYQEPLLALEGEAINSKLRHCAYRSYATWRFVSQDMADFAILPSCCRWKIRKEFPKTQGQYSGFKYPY
In short: as §1

[3] = molecular target: T3, P2X7 receptor (Homo sapiens, UniProt Q99572); set-up: hP2X7 (IC50; nM); other: hP2X7; HEK-293 cells stably transfected with P2X7 receptor, Bz-ATP at EC80, Fluo-8 NW; potency; details: hP2X7; HEK-293 cells stably transfected with P2X7 receptor, Bz-ATP at EC80, Fluo-8 NW; potency ranges A-D
T3 sequence (Q99572 1-595): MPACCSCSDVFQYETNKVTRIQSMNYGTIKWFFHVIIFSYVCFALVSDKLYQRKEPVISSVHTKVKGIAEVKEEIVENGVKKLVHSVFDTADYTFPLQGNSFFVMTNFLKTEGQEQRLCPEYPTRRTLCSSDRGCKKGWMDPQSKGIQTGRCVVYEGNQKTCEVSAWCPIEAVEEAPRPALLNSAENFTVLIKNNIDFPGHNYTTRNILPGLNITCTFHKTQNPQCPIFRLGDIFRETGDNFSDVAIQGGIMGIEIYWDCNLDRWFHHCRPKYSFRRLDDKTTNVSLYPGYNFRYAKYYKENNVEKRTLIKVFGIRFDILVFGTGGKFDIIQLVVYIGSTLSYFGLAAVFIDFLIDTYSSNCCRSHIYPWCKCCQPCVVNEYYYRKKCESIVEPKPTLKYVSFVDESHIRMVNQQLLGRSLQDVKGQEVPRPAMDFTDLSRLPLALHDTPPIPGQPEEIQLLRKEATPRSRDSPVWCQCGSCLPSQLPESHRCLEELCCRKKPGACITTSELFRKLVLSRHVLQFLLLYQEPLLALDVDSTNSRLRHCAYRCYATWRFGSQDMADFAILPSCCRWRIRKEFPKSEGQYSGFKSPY
In short: as §1

SMILES: O=c1onc(Cc2c(F)cccc2Cl)n1CC1CCC1 [Example 69, 3-[(2-chloro-6-fluorophenyl)methyl]-4-(cyclobutylmethyl)-4,5-dihydro-1,2,4-oxadiazol-5-one]
- IC50 [1]: 1000 to 10000 nM
- IC50 [2]: 200 to 1000 nM
- IC50 [3]: 1000 to 10000 nM

SMILES: O=c1onc(Cc2c(F)cccc2Cl)n1CC1CCC2(CC1)OCCO2 [Example 70, 3-[(2-chloro-6-fluorophenyl)methyl]-4-{1,4-dioxaspiro[4.5]decan-8-ylmethyl}-4,5-dihydro-1,2,4-oxadiazol-5-one]
- IC50 [1]: 1000 to 10000 nM
- IC50 [2]: 1000 to 10000 nM
- IC50 [3]: 200 to 1000 nM

SMILES: O=c1onc(Cc2cccc(C(F)(F)F)c2Cl)n1Cc1ccc(F)cc1 [Example 72, 3-{[2-chloro-3-(trifluoromethyl)phenyl]methyl}-4-[(4-fluorophenyl)methyl]-4,5-dihydro-1,2,4-oxadiazol-5-one]
- IC50 [1]: > 10000 nM
- IC50 [2]: > 10000 nM
- IC50 [3]: > 10000 nM

SMILES: O=c1onc(Cc2ccc(Cl)cc2Cl)n1Cc1ccc(F)cc1 [Example 74, 3-[(2,4-dichlorophenyl)methyl]-4-[(4-fluorophenyl)methyl]-4,5-dihydro-1,2,4-oxadiazol-5-one]
- IC50 [1]: 1000 to 10000 nM
- IC50 [2]: 1000 to 10000 nM
- IC50 [3]: 1000 to 10000 nM

SMILES: O=c1onc(Cc2ccccc2F)n1Cc1ccc(F)cc1 [Example 75, 3-[(2-fluorophenyl)methyl]-4-[(4-fluorophenyl)methyl]-4,5-dihydro-1,2,4-oxadiazol-5-one]
- IC50 [1]: 1000 to 10000 nM
- IC50 [2]: 1000 to 10000 nM
- IC50 [3]: 1000 to 10000 nM

SMILES: CC(C)(c1c(F)cccc1Cl)c1noc(=O)n1Cc1ccc(F)cc1 [Example 77, 3-[2-(2-chloro-6-fluorophenyl)propan-2-yl]-4-[(4-fluorophenyl)methyl]-4,5-dihydro-1,2,4-oxadiazol-5-one]
- IC50 [1]: > 10000 nM
- IC50 [2]: > 10000 nM
- IC50 [3]: > 10000 nM

SMILES: CC(c1c(F)cccc1Cl)c1noc(=O)n1Cc1ccc(F)cc1 (stereo not drawn) [Example 78, 3-[1-(2-chloro-6-fluorophenyl)ethyl]-4-[(4-fluorophenyl)methyl]-4,5-dihydro-1,2,4-oxadiazol-5-one]
- IC50 [1]: > 10000 nM
- IC50 [2]: > 10000 nM
- IC50 [3]: > 10000 nM

SMILES: O=c1onc(Cc2ccncc2)n1Cc1ccc(F)cc1 [Example 79, 4-[(4-fluorophenyl)methyl]-3-(pyridin-4-ylmethyl)-4,5-dihydro-1,2,4-oxadiazol-5-one]
- IC50 [1]: > 10000 nM
- IC50 [2]: > 10000 nM
- IC50 [3]: > 10000 nM

SMILES: O=c1onc(Cc2ccc(F)cc2F)n1Cc1ccc(F)cc1 [Example 80, 3-[(2,4-difluorophenyl)methyl]-4-[(4-fluorophenyl)methyl]-4,5-dihydro-1,2,4-oxadiazol-5-one]
- IC50 [1]: > 10000 nM
- IC50 [2]: 1000 to 10000 nM
- IC50 [3]: 1000 to 10000 nM

SMILES: O=c1onc(Cc2c(F)cccc2Cl)n1CC1CC1 [Example 83, 3-[(2-chloro-6-fluorophenyl)methyl]-4-(cyclopropylmethyl)-4,5-dihydro-1,2,4-oxadiazol-5-one]
- IC50 [1]: > 10000 nM
- IC50 [2]: > 10000 nM
- IC50 [3]: > 10000 nM

SMILES: O=c1onc(Cc2c(F)cccc2Cl)n1CC1CCCOC1 (stereo not drawn) [Example 89, 3-[(2-chloro-6-fluorophenyl)methyl]-4-(oxan-3-ylmethyl)-4,5-dihydro-1,2,4-oxadiazol-5-one]
- IC50 [1]: > 10000 nM
- IC50 [2]: 1000 to 10000 nM
- IC50 [3]: 1000 to 10000 nM

SMILES: CCC#CCn1c(Cc2c(F)cccc2Cl)noc1=O [Example 90, 3-[(2-chloro-6-fluorophenyl)methyl]-4-(pent-2-yn-1-yl)-4,5-dihydro-1,2,4-oxadiazol-5-one]
- IC50 [1]: > 10000 nM
- IC50 [2]: 1000 to 10000 nM
- IC50 [3]: 1000 to 10000 nM

SMILES: O=c1onc(Cc2c(F)cccc2Cl)n1CC1CCOCC1 [Example 93, 3-[(2-chloro-6-fluorophenyl)methyl]-4-(oxan-4-ylmethyl)-4,5-dihydro-1,2,4-oxadiazol-5-one]
- IC50 [1]: 1000 to 10000 nM
- IC50 [2]: 200 to 1000 nM
- IC50 [3]: 1000 to 10000 nM

SMILES: CC#CCn1c(Cc2c(F)cccc2Cl)noc1=O [Example 95, 4-(but-2-yn-1-yl)-3-[(2-chloro-6-fluorophenyl)methyl]-4,5-dihydro-1,2,4-oxadiazol-5-one]
- IC50 [1]: > 10000 nM
- IC50 [2]: > 10000 nM
- IC50 [3]: > 10000 nM
